Assay results: article PMC9701179, “New tricyclic systems as photosensitizers towards triple negative breast cancer cells” (Archives of Pharmacal Research, 2022)
“Also recorded” adds a separate entry of the source.

Experiments:
MDA-MB-231 cells [1] = experiment: Quantification of thiols (DTNB assay); format: cell-based, human; details: MDA-MB-231, 25 µM; for Intracellular thiols (qualitative): UVA 2.0 J/cm^2
Procedure: The MDA-MB-231 cells (2 × 10^5) were seeded in a six-well plate in growth medium (4 mL). After 24 h, cells were incubated with tested compounds (25 µM) for 90 min, and after that exposed to UVA light (2.0 J/cm^2). Subsequently, after 24 h, the thiol content was measured as previously described (Rigobello et al. [2009]).
(§1) Fig. 4 Cellular ROS production (A) and total thiol redox state (B). A Effect of UVA activated tested compounds (25 µM) or antimycin (3 µM) on hydrogen peroxide formation in MDA-MB-231 cancer cells. B Sulfhydryl content in MDA-MB-231 cancer cells incubated for 24 h with UVA activated tested compounds. The sulfhydryl group amount was determined by the DTNB assay. Error bars indicate S.D

MDA-MB-231 cells [2] = experiment: Mitochondrial membrane potential (Mito-ID kit); format: cell-based, human; details: MDA-MB-231, UVA 2.0 J/cm^2; CCCP positive control
Procedure: The ΔΨ was assayed using the Mito-ID® Membrane Potential Kit according to the manufacturer’s instructions (Enzo Life Sciences, Farmingdale, NY, USA) as previously described. Briefly, MDA-MB-231 cells (8 × 10^3 per well) were seeded in 96-well plates; after 24 h, cells were washed with PBS and loaded with Mito-ID Detection Reagent for 30 min at 37 °C in the dark. Afterwards, cells were incubated with increasing concentrations of tested compounds for 90 min and after that exposed to UVA light (2.0 J/cm^2). CCCP (Carbonyl cyanide 3-chlorophenyl-hydrazone) was used as positive control. Fluorescence intensity was estimated using a VICTOR X3 (PerkinElmer, USA) plate reader at 490 (excitation) and 590 nm (emission).
Induction of ROS production can in turn prompt the collapse of mitochondrial membrane potential as well as loss of mitochondrial integrity and functioning. […] MDA-MB-231 TNBC cells were treated with tested compounds upon UVA irradiation and the percentage of cells with hypopolarized mitochondrial membrane potential was determined fluorometrically by means of the Mito-ID® Membrane Potential Kit.
(§2) Fig. 5 Effects on mitochondrial membrane potential (A) and cell death induction (B) in human breast MDA-MB-231 cancer cells. A Cells were treated with 7h and 8e and stained with TMRM (10 nM). Fluorescence was estimated at 490 nm (excitation) and 590 nm (emission). Data are the means of five independent experiments. Error bars indicate S.D. * P < 0.05. B Cells were treated with concentrations of 7h and 8e equal to IC50 for 24 h and stained with the fluorescent dyes Hoechst 33342 and PI

[3] = UVA photostability (UV-Vis spectra in PBS); format: physicochemical; details: for Stability under UVA irradiation (UV-Vis spectra): 2.2 × 10^−5 M, increasing UVA doses 0–20 J/cm^2; for Photodegradation at the light dose of the cytotoxic experiments: UVA 2 J/cm^2, decrease of absorbance of main UV-Vis peaks (data not shown)
Procedure: Samples containing each compound (2.2 × 10^− 5 M) dissolved in PBS (0.04 M) were irradiated with increasing UVA doses from 0 to 20 J/cm^2 ([…], 5, 10, 15 and 20 J/cm^2), and their absorption spectrum was measured, with a Cary 50 Scan UV–Visible Spectrophotometer.
The most significant 7h and 8e pyridone derivatives were tested for their stability under UVA irradiation. […] Moreover, isosbestic points were visible, indicating the formation of one or more new stable species in equilibrium with the intact dark compound.
Fig. 6 UV–Vis Absorption spectra of 7h (left) and 8e (right) in PBS irradiated under 0, 2, 5, 10, 15 and 20 J/cm^2 with UVA light. 0 J/cm^2, red spectrum; 20 J/cm^2, light green spectrum

MDA-MB-231 cells [4] = experiment: Intracellular ROS production (CM-H2DCFDA) under UVA; format: cell-based, human; details: MDA-MB-231, 25 µM, 90 min, UVA 2.0 J/cm^2; antimycin 3 µM positive control
Procedure: The production of ROS was measured in MDA-MB-231 cells (10^4 per well) grown for 24 h in a 96-well plate in RPMI medium without phenol red (Merk, Germany). Cells were then washed with PBS and loaded with 10 μM 5-(and-6)-chloromethyl-2′,7′-dichlorodihydrofluorescein diacetate acetyl ester (CM–H2DCFDA) (Molecular Probes-Invitrogen, Eugene, OR) for 45 min, in the dark. Afterwards, cells were washed with PBS and incubated with tested compounds (25 µM) for 90 min and after that exposed to UVA light (2.0 J/cm^2). Fluorescence increase was estimated utilizing the wavelengths of 485 nm (excitation) and 527 nm (emission) in a VICTOR X3 (PerkinElmer, USA) plate reader. Antimycin (3 μM, Merk), a potent inhibitor of Complex III in the electron transport chain, was used as positive control.
ROS production under light (UVA, 2.0 J/cm^2) was evaluated in MDA-MB-231 cell samples treated with increasing concentrations of tested compounds or antimycin, a potent inhibitor of Complex III of mitochondria electron chain, used as a positive control under the same experimental conditions (Fig. 4).
as §1

MDA-MB-231 cells [5] = experiment: Cell death induction (Hoechst / PI staining, confocal microscopy); format: cell-based, human; details: MDA-MB-231, IC50 doses, 24 h
Procedure: MDA-MB-231 cells were seeded into 8-well tissue-culture slides (BD Falcon, Bedford, MA, USA) at 5 × 10^4 cells/well (0.8 cm^2). After 24 h, the cells were washed twice with PBS and, following 24 h of treatment with IC50 doses of the tested compound, cells were stained for 5 min with 10 µg/mL of Hoechst 33258 (20-(4-hydroxyphenyl)-5-(4-methyl-1-piperazinyl)-2,50-bi-1H-benzimidazole trihydrochloride hydrate, Sigma-Aldrich, St.Louis, MI, USA) or propidium iodide (PI, Sigma-Aldrich, St.Louis, MI, USA) in PBS. Samples were examined at × 5 and × 40 magnification in a Zeiss LSM 800 confocal microscope using the Zeiss ZEN 2.3 software system.
as §2
Loss of mitochondrial transmembrane potential is a crucial step in the activation of intrinsic apoptotic cell death. […] MDA-MB-231 cells were treated with IC50 doses of tested compounds and apoptotic cell death induction was confirmed through a Hoechst 33342 staining assay.

SMILES	Intracellular thiols (qualitative) (MDA-MB-231 cells [1])	Decrease of intracellular sulfhydryl content (MDA-MB-231 cells [1]; UVA 2.0 J/cm^2, after 24 h of exposure)	Cells with depolarized mitochondria (mitochondrial membrane potential) (MDA-MB-231 cells [2])	Stability under UVA irradiation (UV-Vis spectra) [3]	Photodegradation at the light dose of the cytotoxic experiments [3]	Cellular ROS production (hydrogen peroxide formation) (MDA-MB-231 cells [4])	Apoptotic cell death induction (Hoechst 33342 staining) (MDA-MB-231 cells [5])	Necrosis induction (PI staining) (MDA-MB-231 cells [5])
CCOC(=O)c1ccc2n1CCc1cc(S(=O)(=O)c3ccccc3)c(OC)nc1-2 [Compound 7h, Ethyl 3-(benzenesulfonyl)-2-methoxy-5,6-dihydropyrrolo[1,2-h][1,7]naphthyridine-8-carboxylate]	significantly decreased	about 45%	significant increase of cells with depolarized mitochondria	very unstable under light	photodegradation was very weak	highest increase in cellular ROS production; also recorded: hydrogen peroxide content comparable to that induced by antimycin	positive to Hoechst 33342 staining	poor stained with PI
CCOC(=O)c1ccc2n1CCCc1cc(S(=O)(=O)c3ccccc3)c(OC)nc1-2 [Compound 8e, Ethyl 3-(benzenesulfonyl)-2-methoxy-6,7-dihydro-5H-pyrido[2,3-c]pyrrolo[1,2-a]azepine-9-carboxylate]	significantly decreased		significant increase of cells with depolarized mitochondria	very unstable under light	photodegradation was very weak	highest increase in cellular ROS production	positive to Hoechst 33342 staining	poor stained with PI
